Reference: patent US20170044150A1, “IDENTIFICATION OF COMPOUNDS WHICH INHIBIT ATG8-ATG3 PROTEIN-PROTEIN INTERACTION AND THEIR USE AS ANTIPARASITICAL AGENTS” (THE JOHNS HOPKINS UNIVERSITY, priority 2014, published 2017)

Experiments:
hLC3-hAtg3 interaction = target: T1, hLC3-hAtg3 interaction (Homo sapiens, UniProt Q9GZQ8); assay: SPR protein-protein interaction assay, hLC3-hAtg3; assay type: binding; conditions: 500 μM
T1 construct: made in house; host or cells: E. coli Rosetta 2
Method: Surface Plasmon Resonance (SPR) protein-protein interaction assay. All measurements were carried out on a BiaCore 3000 instrument. We used the previously described SPR competition assay to test inhibition of the PfAtg8-PfAtg3 and hLC3-hAtg3 interaction. The standard running buffer was 10 mM HEPES, 150 mM NaCl, 0.01% Tween 20, adjusted to pH 7.5. Prior to performing SPR assays, all solutions were sterile filtered and degassed for 1 h at room temperature. For small molecule inhibitor studies, the same running buffer was supplemented with 1% DMSO. All dose dependency measurements were carried out in triplicate and corrected for DMSO absorption effects using double referencing with interspersed blank injections and an untreated flow cell on the SPR chip and the SPR analysis software Scrubber 2.0 (BioLogics). For each interaction pair, a new CM5 SPR chip was used. To exclude surface decay during the experiment, positive control injections were interspersed every 12th injection. For all interaction studies, the Atg3 homologue was immobilized and the corresponding Atg8 partner was passed as an analyte over the chip in either the presence or absence of small molecule inhibitors, dissolved to 100 mM in 100% DMSO and tested at 500 μM final concentration. […]

P. falciparum 3D7 = assay: SYBR Green I growth inhibition assay, blood stage; assay type: cell-based; conditions: Plasmodium falciparum, 3D7, 3D7 blood stage cultures; read-out: IC50
Method: P. falciparum blood stage culturing. P. falciparum 3D7 and FCR3 cultures were maintained using modified, previously published methods at 37° C., 2% hematocrit of human red blood cells (Science 1976, 193, 673-675). Complete culture media consisted of sterile RPMI 1640 media (Life Technologies), supplemented with 10% human serum, 0.005% hypoxanthine, and buffered with final concentrations of 0.6% HEPES and 0.26% NaHCO3. The FCR3 strain was maintained at 3% CO2 and 5% O2, 92% N2 atmosphere, while the 3D7 strain was maintained at 5% CO2, 5% O2, 90% N2 atmosphere.
SYBR Green I growth inhibition assay. 10 μL of 10× compound diluted in RPMI 1640 media (Gibco) with a constant concentration of 1% DMSO was added to a 96 well plate (Costar), 90 μL of 1.5% ring stage, synchronized with 5% w/v sorbitol P. falciparum 3D7 parasites, 1% hematocrit, in culture media with 10% v/v human serum with 10 μg/mL gentamycin. Each compound concentration and 1% v/v DMSO controls were run in triplicate. Plates were incubated at 37° C. in 5% O2, 5% CO2 and 90% N2 for 72 hours. Plates were frozen, thawed, and incubated with 100-μL 2× SYBR green in lysis buffer (20 mM Tris pH 7.5, 5 mM EDTA, 0.008% Saponin, 0.08% TritonX-100) in the dark for at least one hour. Fluorescence was measured with a plate reader (HTS 7000, Perkin Elmer) at excitation/emission wavelengths of 485/535 nm.
Plasmodium parasite growth inhibition assay. P. falciparum 3D7 parasites were cultured as previously described (J Med Chem 57:4521-4531(2014)). Briefly, the parasites were cultured in 10% v/v human serum with 10 μg/mL gentamycin and synchronized with 5% w/v sorbitol. 1.5% ring stage parasites were added to 96 well plates (Costar) containing serial dilutions, performed in triplicate, of compound in RPMI 1640 media (Gibco). Plates were incubated at 37° C. in 5% O2, 5% CO2, and 90% N2 for 72 h. Plates were frozen, thawed, and incubated with 100 μL 2× SYBR green in lysis buffer (20 mM Tris pH 7.5, 5 mM EDTA, 0.008% Saponin, 0.08% TritonX-100) in the dark for 1 h. Fluorescence was measured with a plate reader (HTS 7000, PerkinElmer) at excitation/emission wavelengths of 485/535 nm.

P. falciparum 3D7-GFP = assay type: cell-based; conditions: 96 hrs post infection
Method: In vitro infection of human hepatocytes with P. falciparum 3D7-GFP. The HC-04 cell line (ATCC, Manassas, Va., USA) was maintained in complete medium (IMDM containing 2.5% FCS, 100 units/ml penicillin, 100 μg/ml streptomycin and 2 mM L-glutamine, all from GIBCO®, Life Technologies, Grand Island, N.Y.). P. falciparum 3D7-GFP parasite strain (PLoS ONE 2010, 5, e9156) was propagated in the Parasitology Core facility, the Johns Hopkins Malaria Research Institute. In vitro infection of human hepatocytes was done as described previously (PLoS ONE 2013, 8, e75321). Briefly, salivary glands were sequestered from infected Anopheles gambiae mosquitoes at day 17 after exposure to infective blood meal and homogenates were separated on an OptiPrep™ Density Gradient (Sigma-Aldrich, St. Louis, Mo.) at 12,000×g for 10 minutes. Sporozoites were collected from the gradient interface, washed in complete medium, counted using a hemocytometer and incubated with HC-04 cells at 3:1 sporozoite to hepatocyte ratio for 2 hours at 37° C. […]
Detection of P. falciparum exoerythrocytic forms in vitro. HC-04 human hepatocyte cell line (ATCC, Manassas, Va., USA) was maintained in complete medium (IMDM containing 2.5% FCS, 100 units/ml penicillin, 100 μg/ml streptomycin and 2 mM L-glutamine, all from GIBCO®, Life Technologies, Grand Island, N.Y.). P. falciparum 3D7HT-GFP parasite strain (PLoS One. 5(2):e9156. doi:10.1371/journal.pone.0009156 (2010)) was propagated in the Parasitology Core facility of the Johns Hopkins Malaria Research Institute. In vitro infection of human hepatocytes, and detection and quantification of P. falciparum 3D7HT-GFP EEFs by flow cytometry were performed as previously described (PLoS One. 8(9):e75321. doi:10.1371/journal.pone.0075321 (2013)).

HC-04 cells = assay: HC-04 hepatocyte viability / cytotoxicity (Annexin-V, PI flow cytometry); assay type: cell-based, human; conditions: 96 hour treatment
Method: Detection of Annexin-V positive and PI-positive cells in hepatocyte cultures was done by flow cytometry according to the manufacturer's instruction (Invitrogen™, Life Technologies, Grand Island, N.Y., USA).
Hepatocyte cytotoxicity assay. Hepatocyte cytotoxicity assays were carried out in triplicate at two concentrations of inhibitory compounds using HC-04 cells as previously described. Flow cytometry was used to assess two cytotoxicity markers via staining, namely propidium iodine (PI) and Annexin-V.

PfAtg8 = assay: Immunoblot analysis of PfAtg8 in P. falciparum blood stage cultures; assay type: cell-based; conditions: 100 μM, five-hour treatment
Source text: Immunoblot analysis of P. falciparum blood stage. […] RBCs were harvested with centrifugation, lysed with 0.2% saponin, and RBC lysate was removed through three 1× PBS washes. Parasites were harvested by centrifugation and washed in 1× PBS with Complete EDTA-free protease inhibitors (Roche) and lysed by repeated vortexing and boiling in SDS reducing sample buffer. […] HRP-conjugated secondary antibodies (Southern Biotech) were detected by SuperSignal West Femto (Thermo Scientific) or Amersham™ ECL™ Prime (GE Healthcare) chemiluminescent substrate. AP-conjugated secondary antibodies (EMD Millipore) were detected using NBT/BCIP (Promega) colorimetric stain. Total protein levels were visualized with ProAct™ Membrane Stain (Amresco) and quantified with ImageJ. Parasite morphology at time of harvesting was visualized with light microscopy at 100× magnification on Olympus BX53 system microscope (Olympus America, Inc.).

[1] = target: T2, PfAtg8-PfAtg3 interaction (Plasmodium falciparum, UniProt Q8IJK2); assay: SPR protein-protein interaction assay, PfAtg8-PfAtg3 (VLS compounds); assay type: binding, P. falciparum; conditions: read-out: SPR-IC50; dose-dependent inhibition of plasmodial Atg8-Atg3
T2 construct: rows headed: SPR-IC50
T2 sequence (Q8IJK2 1-124 C32I/C119S/C122S): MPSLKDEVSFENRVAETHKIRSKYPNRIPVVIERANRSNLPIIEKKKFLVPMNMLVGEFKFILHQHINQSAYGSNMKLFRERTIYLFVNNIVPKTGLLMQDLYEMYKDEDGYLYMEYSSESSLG
Method: Surface Plasmon Resonance (SPR) protein-protein interaction assay. All measurements were carried out on a BiaCore 3000 instrument. We used the previously described SPR competition assay to test inhibition of the PfAtg8-PfAtg3 and hLC3-hAtg3 interaction. The standard running buffer was 10 mM HEPES, 150 mM NaCl, 0.01% Tween 20, adjusted to pH 7.5. Prior to performing SPR assays, all solutions were sterile filtered and degassed for 1 h at room temperature. For small molecule inhibitor studies, the same running buffer was supplemented with 1% DMSO. All dose dependency measurements were carried out in triplicate and corrected for DMSO absorption effects using double referencing with interspersed blank injections and an untreated flow cell on the SPR chip and the SPR analysis software Scrubber 2.0 (BioLogics). For each interaction pair, a new CM5 SPR chip was used. To exclude surface decay during the experiment, positive control injections were interspersed every 12th injection. For all interaction studies, the Atg3 homologue was immobilized and the corresponding Atg8 partner was passed as an analyte over the chip in either the presence or absence of small molecule inhibitors, dissolved to 100 mM in 100% DMSO and tested at 500 μM final concentration. Prior to the immobilization of Atg3 to an SPR chip, a pH scouting from pH 6.0 to pH 4.0 in intervals of 0.5 pH units was carried out to determine the best pre-concentration conditions for immobilization. Briefly, flow cells of an SPR chip were activated using N-hydroxysuccinimide (NHS) and 1-ethyl-3-(3-dimethylaminopropyl)carbodiimide (EDC) for 7 min with a flow rate of 20 μl/min. For PfAtg3 immobilization, a solution of 50 μg/ml of PfAtg3 in 10 mM sodium acetate pH 5.0 was passed over one flow cell until >500 Response Units (RU) were captured. The same procedure was followed for the immobilization of hAtg3. Activated free binding sites on the chip were blocked using 1 M ethanolamine for an additional 7 min. All experiments were carried out at 25° C. with a 40 μl/min flow rate and 75 s contact time, followed by a 1 min dissociation time and a 25 μl regeneration injection of 2 M MgCl2.
The dose-response curves were used to determine the approximate concentration of analyte (PfAtg8 or hLC3) needed to obtain a particular response unit (RU), typically in the range of 100-150 RU's. A fixed amount of analyte was then passed over the chip resulting in at least 100-150 response units (RU) in the absence of small molecules.

PfAtg8^CM = PfAtg8^CM (Plasmodium falciparum, UniProt Q8IJK2); assay: Thermal shift assay; conditions: 100 μM to 2 mM

Q: For Cc1cccn2cc(C(=O)NCC3CCN(Cc4cnc[nH]4)C3)nc12 (stereo not drawn) [Compound C24, N-([1-(1H-imidazol-5-ylmethyl)pyrrolidin-3-yl]methyl)-8-methyl-imidazo[3,2-a] pyridine-2-carboxamide], which “effect on hAtg3-hLC3 binding” value (hLC3-hAtg3 interaction) is on record?
A: The value was “significant increase in binding”.

Q: For Cc1cccc(CNC(=O)NCC2CCN(Cc3ccccn3)C2)c1 (stereo not drawn) [Compound C25, 1-[(3-methylphenyl)methyl]-3-([1-pyridin-2-ylmethyl-pyrrolidin-3-yl]methyl)urea], which IC50 (P. falciparum 3D7) is on record?
A: Its IC50 is 19 ± 6 µM.

Q: What about the “reduction of the number of infected HC-04 cells” value (P. falciparum 3D7-GFP; 30 μM) of the same molecule?
A: The value was 30%.

Q: What about the GFP fluorescence intensity (P. falciparum 3D7-GFP) of the same molecule?
A: The GFP fluorescence intensity was “little effect”.

Q: And the “cell viability of HC-04 cells” value (HC-04 cells)?
A: Its value is “did not affect cell viability”.

Q: And the “increase of PfAtg8 protein levels compared to the loading control” value (PfAtg8)?
A: Its value is “over 10 fold”.

Q: And the “mobility of Atg8” value (PfAtg8)?
A: The value was “retarded, indicative of the unlipidated Atg8 species”.

Q: And the IC50 [1]?
A: The IC50 was 18.5 ± 2.1 µM.

Q: What about the “effect on Tm of PfAtg8^CM” value (PfAtg8^CM) of the same molecule?
A: The value was “dose-dependent decrease”.
